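How tested: cells in 96-well plates exposed to compound for 48 hours at five concentrations. GI50: concentration for 50% inhibition of growth.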 Active and inactive are the calls of the source. Cut-off read from the data, not from the text of the source: active = GI50 up to about 1.1 µM and inactive = higher.
How the values were obtained:
Assay in all cases: NCI-60 cell line screen, 48 h
[1] = tested on: NCI/ADR-RES
[2] = tested on: HOP-62
[3] = tested on: NCI-H522
[4] = tested on: NCI-H226
[5] = tested on: UO-31
[6] = tested on: RXF 393
[7] = tested on: SF-295
[8] = tested on: A498
[9] = tested on: SF-268
[10] = tested on: Malme-3M
[11] = tested on: MDA-MB-231
[12] = tested on: Hs-578T
[13] = tested on: RPMI-8226
[14] = tested on: HCT-116
[15] = tested on: CAKI-1
[16] = tested on: HL-60
[17] = tested on: SK-OV-3
[18] = tested on: CCRF-CEM
[19] = tested on: SW-620
[20] = tested on: MOLT-4

Measured: GI50

NC(CSCc1ccc(I)cc1)C(=O)O (stereo not given)
inactive: [1] > 100 µM | [2] > 100 µM | [3] > 100 µM | [4] > 100 µM | [5] > 100 µM | [6] > 100 µM | [7] > 100 µM | [8] > 100 µM | [9] > 100 µM | [10] > 100 µM | [11] > 100 µM | [12] 80.7 µM | [13] > 100 µM | [14] > 100 µM | [15] > 100 µM | [16] > 100 µM | [17] > 100 µM | [18] > 100 µM | [19] > 100 µM | [20] > 100 µM

COc1ccc2c(c1)N(C(C)=O)CN1C(=O)CCC21 (stereo not given)
inactive: [1] > 100 µM | [2] > 100 µM | [3] > 100 µM | [4] > 100 µM | [5] > 100 µM | [6] > 100 µM | [7] > 100 µM | [8] > 100 µM | [9] > 100 µM | [10] > 100 µM | [11] > 100 µM | [12] > 100 µM | [13] 49.3 µM | [14] > 100 µM | [15] > 100 µM | [16] 48.2 µM | [17] > 100 µM | [18] 41.7 µM | [19] > 100 µM | [20] 46 µM

CC[S+]([O-])c1c2cc(OC)ccc2nc2ccc(OC)cc12 (stereo not given)
inactive: [1] 20.4 µM | [2] 21.5 µM | [3] 1.83 µM | [4] 21.8 µM | [5] 4.82 µM | [6] 4.71 µM | [7] 27.1 µM | [8] 17.3 µM | [9] 14.5 µM | [10] 5.12 µM | [11] 5.62 µM | [12] 13.1 µM | [13] 3.45 µM | [14] 3.19 µM | [15] 5.06 µM | [16] 4.99 µM | [17] 24.1 µM | [18] 3.79 µM | [19] 6.84 µM | [20] 4.07 µM

CC12CC(=O)Nc3ccccc3N1C(c1ccccc1)=NO2 (stereo not given)
inactive: [1] > 100 µM | [2] > 100 µM | [3] > 100 µM | [4] > 100 µM | [5] > 100 µM | [6] > 100 µM | [7] > 100 µM | [8] > 100 µM | [9] > 100 µM | [10] > 100 µM | [11] > 100 µM | [12] > 100 µM | [13] > 100 µM | [14] > 100 µM | [15] > 100 µM | [16] > 100 µM | [17] > 100 µM | [18] > 100 µM | [19] > 100 µM | [20] > 100 µM

OCc1ccc2c(c1)CC1(Cc3ccccc3C1)C2
inactive: [1] 16.8 µM | [2] 25.6 µM | [3] 22.5 µM | [4] 28.1 µM | [5] 11.8 µM | [6] 15.7 µM | [7] 18.1 µM | [8] 26.7 µM | [9] 18.1 µM | [10] 13.6 µM | [11] 10.1 µM | [12] 15.8 µM | [13] 15.8 µM | [14] 14.3 µM | [15] 15.9 µM | [16] 10.7 µM | [17] 25.6 µM | [18] 4.39 µM | [19] 18.4 µM | [20] > 10 µM

Cc1c(/N=C\c2ccc(N(CCC#N)CCC#N)cc2)c(=O)n(-c2ccccc2)n1C
inactive: [1] > 100 µM | [2] 31.5 µM | [3] > 100 µM | [4] > 100 µM | [5] > 100 µM | [6] 24 µM | [7] 25.7 µM | [8] 69.2 µM | [9] 64.6 µM | [10] > 100 µM | [11] 77.4 µM | [12] 38 µM | [13] > 100 µM | [14] > 100 µM | [15] > 100 µM | [16] > 100 µM | [17] > 100 µM | [18] > 100 µM | [19] > 100 µM | [20] > 100 µM

Clc1nc(-c2ccccc2)nc(Cl)c1Cl
inactive: [1] 22.5 µM | [2] 18 µM | [3] 3.21 µM | [4] 12.1 µM | [5] 40.8 µM | [6] 7.85 µM | [7] 17.3 µM | [8] 17.6 µM | [9] 11.6 µM | [10] 5.31 µM | [11] 13.7 µM | [12] 15 µM | [13] 4.29 µM | [14] 5.6 µM | [15] 3.09 µM | [16] 13.2 µM | [17] 14 µM | [18] 2.54 µM | [19] 4.98 µM | [20] 3.1 µM

— ChEMBL document CHEMBL1201862, “PubChem BioAssay data set” (2004)
